Measured values from patent publication US20180021485A1, “METHOD FOR MANUFACTURING DRUG-CONTAINING BIODEGRADABLE FIBER MATERIAL BY ELECTROSPINNING” (ORTHOREBIRTH CO., LTD., priority 2015, published 2018).

Columns and labels:
[1] = Direct intraperitoneal administration of carboplatin to mice; assay type: in vivo, mouse; details: same amount of carboplatin as contained in the cotton-like carrier
Method: On the other hand, the mice to which PBS was administered lived three weeks or more after administration, and were therefore euthanized in the fourth week after administration.

[2] = LD50 of carboplatin intraperitoneally administered to mice; assay type: in vivo; details: mouse having a body weight of 30 g
[3] = intraperitoneally administered to mice; cited from earlier work

For N.N.O=C([O-])C1(C(=O)[O-])CCC1.[Pt+2] [carboplatin, cis-Diamine(1,1-cyclobutanedicarboxylato)platinum (II)], the “survival after direct intraperitoneal administration” value ([1]; healthy mice) was “all the mice died within several days”, the “findings at dissection after direct intraperitoneal administration” value [1] was “The intestines were necrosed and became dysfunctional” and the LD50 per mouse [2] was 4.5 mg. For the same compound, the “LD50 (50% lethal dose)” value [3] was 150 mg/kg.
